Data on 14 compounds can be found in PubChem BioAssay (NCI).

Some test systems named below: NCI-H522 lung; UACC-62 melanoma; SK-MEL-2 melanoma; T-47D breast; MOLT-4 leukemia; DU-145 prostate; SNB-75 CNS; UO-31 renal; RPMI-8226 leukemia; BT-549 breast.
What all share (test): DTP human tumour cell line panel, 48 h

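Exposure lasted 48 hours, with cells grown in 96-well plates and compounds tested at five concentrations. At the TGI there is no net growth.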

`CCCCC(=C=C(C)CO)C1CCCN1C(=O)OC(C)(C)C` (stereo not given): the total growth inhibition concentration (TGI) (in general, the concentration at which net growth stops) is 29 µM with NCI-H522 lung; 26.9 µM in the assay on UACC-62 melanoma; 30.6 µM in the assay with SK-MEL-2 melanoma; above 100 µM with T-47D breast; 33.8 µM in the assay on MOLT-4 leukemia; 34.1 µM with DU-145 prostate. In addition, the TGI in the assay with SNB-75 CNS is 53.4 µM; with UO-31 renal, 37.7 µM; in the assay on RPMI-8226 leukemia, 36.8 µM; in the assay on BT-549 breast it was 31.8 µM.
`O=C1C(C(c2ccc([N+](=O)[O-])cc2)N2CCOCC2)=C(O)C(c2ccccc2)N1c1ccccc1` (stereo not given): the TGI with NCI-H522 lung, in the assay with UACC-62 melanoma, in the assay with SK-MEL-2 melanoma, in the assay on T-47D breast, in the assay on MOLT-4 leukemia and in the assay with DU-145 prostate was above 10 µM throughout. Besides, the TGI in the assay on SNB-75 CNS, with UO-31 renal, in the assay on RPMI-8226 leukemia and in the assay with BT-549 breast was above 10 µM in each case.
As to `CC(=O)OC12CC(C(F)(F)F)(C(F)(F)F)OC1(OC(C)=O)CC(C(F)(F)F)(C(F)(F)F)O2` (stereo not given), the TGI with NCI-H522 lung is above 100 µM; in the assay with UACC-62 melanoma, above 100 µM; with SK-MEL-2 melanoma, above 100 µM; in the assay with T-47D breast, 8.56 µM; in the assay on MOLT-4 leukemia, 67.6 µM; in the assay with DU-145 prostate, 70.4 µM. For the same compound, the TGI in the assay on SNB-75 CNS was above 100 µM; in the assay with UO-31 renal it was 13.3 µM; with RPMI-8226 leukemia, 7.61 µM; in the assay on BT-549 breast, above 100 µM.
With `O=C(NNS(=O)(=O)c1ccc(Br)cc1)c1ccc(Cl)cc1NC(=O)C12CC3CC(CC(C3)C1)C2`, the TGI is 25.1 µM in the assay on NCI-H522 lung; 25.6 µM in the assay with UACC-62 melanoma; 25.3 µM in the assay on SK-MEL-2 melanoma; above 100 µM in the assay on T-47D breast; 73.9 µM with MOLT-4 leukemia; 33.4 µM in the assay on DU-145 prostate. For the same compound, the concentration for total growth inhibition (TGI) in the assay with SNB-75 CNS worked out at 28 µM; in the assay with UO-31 renal it was 24.2 µM; in the assay on RPMI-8226 leukemia, 24 µM; with BT-549 breast, 34.8 µM.
For the compound `COc1cc(NS(C)(=O)=O)ccc1NCc1cnc2ccc3[nH]cccc3c12`, the TGI in the assay on NCI-H522 lung was 39.9 µM; in the assay on UACC-62 melanoma, 35.8 µM; in the assay on SK-MEL-2 melanoma, 39.4 µM; with T-47D breast it was 50.8 µM; in the assay with MOLT-4 leukemia it was 22.1 µM; in the assay on DU-145 prostate it was above 70.3 µM. In addition, the TGI with SNB-75 CNS was found to be 39.3 µM; with UO-31 renal it was 59 µM; in the assay on RPMI-8226 leukemia it was 29.8 µM; in the assay with BT-549 breast it was 52.6 µM.
In the case of `C/C(=N/NC(=S)N(C)C)c1ccccc1O`, the TGI in the assay with NCI-H522 lung is above 100 µM; with UACC-62 melanoma it was 27 µM; in the assay with SK-MEL-2 melanoma, above 100 µM; with T-47D breast, above 85.8 µM; in the assay on MOLT-4 leukemia, 97.7 µM; with DU-145 prostate it was above 100 µM. Moreover, the TGI with SNB-75 CNS is 82.9 µM; in the assay on UO-31 renal, above 100 µM; with RPMI-8226 leukemia, above 100 µM; in the assay on BT-549 breast it was above 100 µM.
As for `COC(=O)c1ccccc1NC(=S)NN(C)C`, the TGI in the assay on NCI-H522 lung, in the assay with UACC-62 melanoma, in the assay with SK-MEL-2 melanoma, in the assay with T-47D breast, in the assay on MOLT-4 leukemia and in the assay with DU-145 prostate was above 100 µM in each case. The TGI in the assay with SNB-75 CNS, in the assay on UO-31 renal, in the assay on RPMI-8226 leukemia and with BT-549 breast was above 100 µM throughout.
Consider `CN(C)C(=S)/N=c1\ssc(=S)n1Cc1cccs1`, for which the TGI with NCI-H522 lung was 9.6 µM; in the assay with UACC-62 melanoma it was above 56.7 µM; in the assay with SK-MEL-2 melanoma, 25.7 µM; in the assay on T-47D breast, above 100 µM; with MOLT-4 leukemia it was above 100 µM; in the assay with DU-145 prostate, above 100 µM. Also, the TGI is 15.2 µM in the assay with SNB-75 CNS, above 100 µM in the assay with UO-31 renal, above 100 µM in the assay on RPMI-8226 leukemia and above 100 µM in the assay with BT-549 breast.
`COc1cc(S(=O)(=O)Nc2ccc(-c3csc(N4C(=O)C(Cl)C4c4cccc(Oc5ccccc5)c4)n3)cc2)ccc1Cl` (stereo not given): the TGI is 3.22 µM in the assay with NCI-H522 lung; 53.4 µM in the assay with UACC-62 melanoma; 76.7 µM with SK-MEL-2 melanoma; 41.9 µM in the assay with T-47D breast; above 100 µM in the assay on MOLT-4 leukemia; 52.1 µM with DU-145 prostate. For the same compound, the TGI with SNB-75 CNS was 45.8 µM; with UO-31 renal it was 43.9 µM; in the assay on RPMI-8226 leukemia, above 100 µM; with BT-549 breast it was 81.5 µM.
For `COC1=CC(=O)c2c(cc(COP(N)(=O)N(CCCl)CCCl)n2C)C1=O` (stereo not given), the TGI in the assay on NCI-H522 lung amounted to 0.802 µM; in the assay on UACC-62 melanoma, 2.16 µM; with SK-MEL-2 melanoma, 4.12 µM; in the assay with T-47D breast, 4.29 µM; in the assay with MOLT-4 leukemia, 0.382 µM; in the assay with DU-145 prostate, 5.71 µM. The TGI amounted to 4.45 µM with SNB-75 CNS, 2.65 µM in the assay with UO-31 renal, 4.73 µM in the assay on RPMI-8226 leukemia and 2.14 µM in the assay on BT-549 breast.
With `O=C(/C=C/c1ccc(OCc2ccccc2)cc1)NCc1ccc(C(=O)NCc2ccccc2)cc1`, the TGI in the assay on NCI-H522 lung, with UACC-62 melanoma, in the assay on SK-MEL-2 melanoma, in the assay with T-47D breast, in the assay with MOLT-4 leukemia and in the assay with DU-145 prostate was above 100 µM throughout. Also, the TGI with SNB-75 CNS, in the assay on UO-31 renal, with RPMI-8226 leukemia and in the assay on BT-549 breast was above 100 µM in each case.
As to `CC(=O)NNc1nc(C)c(C(/C=C/c2ccc([N+](=O)[O-])cc2)=N/NC(N)=O)s1`, the concentration for total growth inhibition (TGI) with NCI-H522 lung, in the assay with UACC-62 melanoma, with SK-MEL-2 melanoma, with T-47D breast, in the assay with MOLT-4 leukemia and in the assay with DU-145 prostate was above 100 µM throughout. Further, the TGI in the assay on SNB-75 CNS, in the assay with UO-31 renal, in the assay with RPMI-8226 leukemia and in the assay with BT-549 breast was above 100 µM each time.
In the case of `COCCOC(C)C(=O)C(O)S(=O)(=O)O` (stereo not given), the TGI with NCI-H522 lung, in the assay on UACC-62 melanoma, in the assay with SK-MEL-2 melanoma, in the assay on T-47D breast, in the assay with MOLT-4 leukemia and in the assay on DU-145 prostate was above 100 µM each time. Besides, the total growth inhibition concentration (TGI) with SNB-75 CNS, with UO-31 renal, with RPMI-8226 leukemia and in the assay with BT-549 breast was above 100 µM in each case.
For the compound `C/C(=N/NC(=S)Nc1cccc(Cl)c1)c1ccccn1`, the TGI with NCI-H522 lung was 2.41 µM; in the assay with UACC-62 melanoma, 2.49 µM; in the assay on SK-MEL-2 melanoma, 8.92 µM; in the assay with T-47D breast, 1.05 µM; in the assay on MOLT-4 leukemia it was 1.47 µM; with DU-145 prostate, 4.98 µM. Moreover, the TGI was 11.7 µM with SNB-75 CNS, 5.03 µM with UO-31 renal, 17.8 µM in the assay with RPMI-8226 leukemia and 16 µM with BT-549 breast.
